Earlier results in US20110064750A1, “METHOD AND KIT FOR TREATING NICOTINE ADDICTION” (Nabi Biopharmaceuticals, priority 2009, published 2011).
Like-named read-outs stand apart in the source and are kept apart here. Each block holds one compound with its values, some of them ahead of it.

Legend:
smoking abstinence [1] = tested on: smoking abstinence
[2] = salt form, powder
smoking cessation = conditions: for Time at which efficacy generally is apparent: previous studies
[3] = molecular target: α4β2 nicotinic acetylcholine receptors (Homo sapiens, UniProt P17787+P43681); conditions: blocking nicotine activation of nAChRs
[4] = tested on: neuronal uptake of norepinephrine and dopamine
[5] = molecular target: α3β2 nicotinic acetylcholine receptors (Homo sapiens, UniProt P17787+P32297); conditions: blocking nicotine activation of nAChRs
smoking abstinence [6] = conditions: 12 week course, varenicline 1.0 mg bid, bupropion 150 mg SR bid, carbon-monoxide confirmed
α4β2 nicotinic receptors = α4β2 nicotinic receptors (Homo sapiens, UniProt P17787+P43681); conditions: stimulating receptor-mediated activity at a significantly lower level than nicotine
Sequence of α4β2 nicotinic receptors (P43681 29-627 limits assumed): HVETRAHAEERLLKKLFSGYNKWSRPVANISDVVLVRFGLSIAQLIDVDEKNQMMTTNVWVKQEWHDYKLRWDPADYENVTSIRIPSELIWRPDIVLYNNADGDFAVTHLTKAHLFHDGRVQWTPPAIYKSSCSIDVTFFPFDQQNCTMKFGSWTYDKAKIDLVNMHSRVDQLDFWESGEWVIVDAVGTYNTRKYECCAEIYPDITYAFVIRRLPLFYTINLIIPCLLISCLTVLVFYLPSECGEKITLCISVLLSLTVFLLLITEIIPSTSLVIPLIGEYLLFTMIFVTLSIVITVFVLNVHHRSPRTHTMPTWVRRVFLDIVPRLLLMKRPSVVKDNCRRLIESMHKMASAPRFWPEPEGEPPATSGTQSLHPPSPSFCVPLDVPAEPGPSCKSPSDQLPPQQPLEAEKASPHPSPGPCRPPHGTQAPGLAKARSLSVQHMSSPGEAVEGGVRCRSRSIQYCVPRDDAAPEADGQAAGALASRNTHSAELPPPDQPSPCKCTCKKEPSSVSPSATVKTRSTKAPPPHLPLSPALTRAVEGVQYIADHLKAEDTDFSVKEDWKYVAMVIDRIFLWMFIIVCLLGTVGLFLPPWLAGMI
Sequence of α4β2 nicotinic receptors (P17787 26-502): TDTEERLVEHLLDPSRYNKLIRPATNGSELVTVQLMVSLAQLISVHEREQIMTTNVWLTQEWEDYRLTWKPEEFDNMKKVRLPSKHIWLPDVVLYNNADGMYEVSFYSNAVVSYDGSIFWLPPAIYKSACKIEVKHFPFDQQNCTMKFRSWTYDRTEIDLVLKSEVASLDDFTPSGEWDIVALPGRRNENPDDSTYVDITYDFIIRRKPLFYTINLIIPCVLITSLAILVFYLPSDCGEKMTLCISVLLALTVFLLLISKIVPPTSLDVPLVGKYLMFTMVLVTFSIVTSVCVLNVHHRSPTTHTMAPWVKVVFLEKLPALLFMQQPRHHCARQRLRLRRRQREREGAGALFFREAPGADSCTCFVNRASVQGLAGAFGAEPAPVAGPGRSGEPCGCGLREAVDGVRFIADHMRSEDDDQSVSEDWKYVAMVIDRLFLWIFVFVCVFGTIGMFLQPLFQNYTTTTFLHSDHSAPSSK

Sequence of α3β2 nicotinic acetylcholine receptors (P32297 32-505): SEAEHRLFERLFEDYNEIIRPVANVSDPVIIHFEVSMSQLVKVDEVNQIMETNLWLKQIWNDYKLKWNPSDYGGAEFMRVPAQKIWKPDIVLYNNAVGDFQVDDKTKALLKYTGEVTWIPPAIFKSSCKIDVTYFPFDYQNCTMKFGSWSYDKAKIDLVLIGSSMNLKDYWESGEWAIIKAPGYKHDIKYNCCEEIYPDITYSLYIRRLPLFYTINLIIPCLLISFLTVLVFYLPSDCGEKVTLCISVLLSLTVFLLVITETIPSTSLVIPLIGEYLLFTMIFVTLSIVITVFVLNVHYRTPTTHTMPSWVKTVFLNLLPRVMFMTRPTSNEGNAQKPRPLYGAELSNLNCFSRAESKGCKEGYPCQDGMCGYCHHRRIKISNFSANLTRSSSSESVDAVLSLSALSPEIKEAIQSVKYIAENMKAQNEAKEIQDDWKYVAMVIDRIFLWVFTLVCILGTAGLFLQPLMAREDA
Sequence of α3β2 nicotinic acetylcholine receptors (P17787 26-502): as the sequence (P17787 26-502) above
Sequence of α4β2 nicotinic acetylcholine receptors (P43681 29-627 limits assumed): as the sequence (P43681 29-627 limits assumed) above
Sequence of α4β2 nicotinic acetylcholine receptors (P17787 26-502): as the sequence (P17787 26-502) above

Compound: CC(NC(C)(C)C)C(=O)c1cccc(Cl)c1.Cl (stereo not shown) [Bupropion, Bupropion hydrochloride]
Abstinence from week 4 through Week 7 (4-week quit) (smoking abstinence [1]; 100 mg/day): 22%
Abstinence from week 4 through Week 12 (smoking abstinence [1]; 100 mg/day): 20%
Abstinence from week 4 through Week 26 (smoking abstinence [1]; 100 mg/day): 16%
Abstinence from week 4 through Week 7 (4-week quit) (smoking abstinence [1]; 150 mg/day): 27%
Abstinence from week 4 through Week 12 (smoking abstinence [1]; 150 mg/day): 20%
Abstinence from week 4 through Week 26 (smoking abstinence [1]; 150 mg/day): 18%
Abstinence from week 4 through Week 7 (4-week quit) (smoking abstinence [1]; 300 mg/day): 36%
Abstinence from week 4 through Week 12 (smoking abstinence [1]; 300 mg/day): 25%
Abstinence from week 4 through Week 26 (smoking abstinence [1]; 300 mg/day): 19%
Solubility in water [2]: highly soluble in water
Time at which efficacy may diminish (smoking cessation; even though administration is ongoing): after about six or seven weeks
Chances of quitting smoking compared with placebo (smoking cessation; in vivo): double
Nicotine craving and nicotine withdrawal symptoms (smoking cessation; in vivo): lower
Time at which efficacy generally is apparent (smoking cessation): one week after the first dose
Times more effective in blocking α4β2 than α7 [3]: 12 times
Inhibition of the neuronal uptake of norepinephrine and dopamine [4]: relatively weak inhibitor
Times more effective in blocking α3β2 than α7 [5]: 50 times
Inhibition of monoamine oxidase (monoamine oxidase): does not inhibit
Continuous Abstinence Rate (Wks 9-12) (smoking abstinence [6]; Study A): 16%
Continuous Abstinence Rate (Wks 9-12) (smoking abstinence [6]; Study B): 14%

Agonist activity at α4β2 nicotinic receptors (α4β2 nicotinic receptors): low level agonist
Solubility in water [2]: highly soluble in water
Compound: c1cnc2cc3c(cc2n1)[C@@H]1CNC[C@H]3C1 [Varenicline, 7,8,9,10-tetrahydro-6,10-methano-6H-pyrazino[2,3-h][3]benzazpine, (2R,3R)-2,3-dihydroxybutanedioate(1:1)]
Time at which efficacy generally is apparent (smoking cessation): one week after the first dose
Continuous Abstinence Rate (Wks 9-12) (smoking abstinence [6]; Study A): 21%
Continuous Abstinence Rate (Wks 9-12) (smoking abstinence [6]; Study B): 22%
